Assay: blood circulation time
Assay type: in vivo
Excerpt: Furthermore, the blood circulation times can be adjusted by varying the polymer length.

Structure (SMILES): O=C([O-])CN(CCN(CC(=O)[O-])CC(=O)O)CCN(CC(=O)[O-])CC(=O)O.[Gd+3] [Gd-DTPA, gadolinuim- diethylentriaminepentaaceticacid]
- circulation time constant: 15 min
